Measurements published in patent US20120184537A1, “[1,4]-BENZODIAZEPINES AS VASOPRESSIN V2 RECEPTOR ANTAGONISTS” (SHIRE-MOVETIS N.V., priority 2009, published 2012).

Experiments:
human V2 receptor [1] = molecular target: T1, human V2 receptor (Homo sapiens, UniProt P30518); assay: Human V2 antagonist effect (AVP-induced cAMP accumulation in transfected CHO cells); assay type: cell-based; set-up: expressed in transfected cells; host or cells: CHO cells; conditions: inhibition of control response to 0.03 nM AVP, read-out: V2 antagonism IC50
Experimental: (§1) The accumulation of cAMP was measured in transfected CHO cells (supra) expressing the human V2 receptor in analogy with the cAMP Assay procedures described in Cotte N., et al., (1998) J. Biol. Chem., 273; 29462-29468; which is incorporated herein by reference.
The cells are suspended in HBSS buffer (Invitrogen) complemented with 20 mM HEPES (pH 7.4), 0.01% and 500 μM IBMX, then distributed in microplates at a density of 3×10^3 cells/well and preincubated for 5 min at 22° C. in the absence (control) or presence of the test compound or the reference antagonist. Thereafter, the reference agonist AVP is added at a final concentration of 0.03 nM.
Following 30 min incubation at 22° C., the cells are lysed and the fluorescence acceptor (D2-labeled cAMP) and fluorescence donor (anti-cAMP antibody labeled with europium cryptate) are added. After 60 min at 22° C., the fluorescence transfer is measured at λex=337 nm and λem=620 and 665 nm using a microplate reader (Rubystar, BMG). The cAMP concentration is determined by dividing the signal measured at 665 nm by that measured at 620 nm (ratio). The results are expressed as a percent inhibition of the control response to 0.03 nM AVP.
The standard reference antagonist is [adamantaneacetyl^1,O-Et-D-Tyr^2,Val^4,aminobutyryl^6]-AVP, which is tested in each experiment at several concentrations to generate a concentration-response curve from which its IC50 value is calculated.

human V1a receptors [2] = molecular target: T2, human V1a receptors (Homo sapiens, UniProt P37288); assay: Human V1a agonist effect (intracellular calcium mobilization in transfected CHO cells); assay type: cell-based; set-up: expressed in transfected cells; host or cells: CHO cells; conditions: compound at 1 μM, control response to 1 μM AVP, Ca2+ fluorescence
Experimental: (§2) Intracellular calcium mobilization was measured in CHO cells transfected to express either human V1a receptors (supra), in analogy with the Measurement of intracellular Ca^2+ concentration as described in Tahara A., et al., (1998) Brit. J. Pharmacol., 125; 1463-1470; which is incorporated herein by reference.
(§3) The cells are suspended in DMEM buffer (Invitrogen) complemented with 0.1% fetal calf serum, then distributed in microplates at a density of 4.5×10^4 cells/well.
(§4) The fluorescent probe (Calcium4, Molecular Device) mixed with probenicid in HBSS buffer (Invitrogen) complemented with 20 mM Hepes (Invitrogen) (pH 7.4) is then added into each well and equilibrated with the cells for 60 min at 37° C. then 15 min at 22° C. Thereafter, the assay plates are positioned in a microplate reader (CellLux, PerkinElmer) which is used for the addition of the test compound, reference agonist or HBSS buffer (basal control), and for the measurements of changes in fluorescence intensity which varies proportionally to the free cytosolic Ca^2+ ion concentration. For stimulated control measurements, AVP at 1 μM is added in separate assay wells.
The results are expressed as a percent of the control response to 1 μM AVP.

human V2 receptor [3] = molecular target: T1, human V2 receptor; assay: Human vasopressin V2 receptor binding assay ([3H]AVP displacement); set-up: expressed in transfected cells; host or cells: CHO cells (membrane homogenates); conditions: displacement of 0.3 nM [3H]AVP, CHO cell membranes, 120 min at 22° C.
Experimental: (§5) The in vitro inhibition of AVP receptor binding was assessed by using recombinant human V1a or V2 receptor preparations derived from the membranes of transfected CHO cells. Compounds were assessed for their ability to displace [^3H]-arginine vasopressin from plasma membrane preparations of said CHO transfected cells in analogy with the Binding Assay procedures described in Cotte N., et al., (1998) J. Biol. Chem., 273; 29462-29468 and Tahara A., et al., (1998) Brit. J. Pharmacol., 125; 1463-1470; which are incorporated herein by reference.
(§6) Cell membrane homogenates (16 μg protein) are incubated for 120 min at 22° C. with 0.3 nM [^3H]AVP in the absence or presence of the test compound in a buffer containing 50 mM Tris-HCl (pH 7.4), 5 mM MgCl2 and 0.1% BSA. Nonspecific binding is determined in the presence of 1 μM AVP. Following incubation, the samples are filtered rapidly under vacuum through glass fiber filters (GF/B, Packard) presoaked with 0.3% PEI and rinsed three times with ice-cold 50 mM Tris-HCl using a 96-sample cell harvester (Unifilter, Packard). The filters are dried then counted for radioactivity in a scintillation counter (Topcount, Packard) using a scintillation cocktail (Microscint 0, Packard).
(§7) The standard reference compound is AVP (V2 receptor binding assay) or [d(CH2)51,Tyr(Me)2]-AVP (V1a receptor binding assay), which is tested in each experiment at several concentrations to obtain a competition curve from which its IC50 is calculated.

human V2 receptor [4] = molecular target: T1, human V2 receptor; assay: Human V2 agonist effect (cAMP accumulation in transfected CHO cells); assay type: cell-based; set-up: expressed in transfected cells; host or cells: CHO cells; conditions: compound at 1 μM, control response to 1 nM AVP
Experimental: as §1
The cells are suspended in HBSS buffer (Invitrogen) complemented with 20 mM HEPES 20 (pH 7.4), 0.01% BSA and 500 μM IBMX, then distributed in microplates at a density of 3×10^3 cells/well and incubated for 30 min at 22° C. in the absence (control) or presence of the test compound or the reference agonist. For stimulated control measurement, separate assay wells contain AVP at a final concentration of 1 nM. Following incubation, the cells are lysed and the fluorescence acceptor (D2-labeled cAMP) and fluorescence donor (anti-cAMP antibody labeled with europium cryptate) are added. After 60 min at 22° C., the fluorescence transfer is measured at λex=337 nm and λem=620 and 665 nm using a microplate reader (Rubystar, BMG). The cAMP concentration is determined by dividing the signal measured at 665 nm by that measured at 620 nm (ratio).
The results are expressed as a percent of the control response to 1 nM AVP.

human V1a receptors [5] = molecular target: T2, human V1a receptors; assay: Human vasopressin V1a receptor binding assay ([3H]AVP displacement); set-up: expressed in transfected cells; host or cells: CHO cells (membrane homogenates); conditions: displacement of 0.3 nM [3H]AVP, CHO cell membranes, 22° C.
Experimental: as §5
as §6, with “(40” for “(16”, “for” for “for 120”
as §7

human V1a receptors [6] = molecular target: T2, human V1a receptors; assay: Human V1a antagonist effect (AVP-induced calcium mobilization in transfected CHO cells); assay type: cell-based; set-up: expressed in transfected cells; host or cells: CHO cells; conditions: inhibition of response to 10 nM AVP, Ca2+ fluorescence, read-out: V1a antagonism IC50
Experimental: as §2, §3
as §4, with “compound” for “compound, reference agonist”, “then 5 min later 10 nM AVP or HBSS buffer (control),” for “(basal control),”, “Ca2+” for “Ca^2+”, “concentration.” for “concentration. For stimulated control measurements, AVP at 1 μM is added in separate assay wells.”
The standard reference antagonist is [d(CH2)^51,Tyr(Me)^2,Arg^8]-AVP, which is tested in each experiment at several concentrations to generate a concentration-response curve from which its IC50 value is calculated.

T2 sequence (P37288 whole entry): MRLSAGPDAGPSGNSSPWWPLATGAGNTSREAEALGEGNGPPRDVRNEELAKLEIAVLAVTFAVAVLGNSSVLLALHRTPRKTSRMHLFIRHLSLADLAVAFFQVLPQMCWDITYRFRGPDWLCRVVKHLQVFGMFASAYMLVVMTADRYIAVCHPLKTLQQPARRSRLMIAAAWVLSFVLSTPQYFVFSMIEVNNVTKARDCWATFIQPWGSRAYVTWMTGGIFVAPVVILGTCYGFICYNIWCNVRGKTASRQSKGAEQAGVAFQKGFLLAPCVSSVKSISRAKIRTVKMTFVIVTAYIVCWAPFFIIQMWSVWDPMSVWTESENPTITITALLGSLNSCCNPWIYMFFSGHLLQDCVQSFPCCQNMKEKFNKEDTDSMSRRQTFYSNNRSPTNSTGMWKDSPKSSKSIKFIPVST

IC50 (human V2 receptor [1])	V1a agonist effect, % of control agonist response (AVP) (human V1a receptors [2])	IC50 (human V2 receptor [3])	V2 agonist effect, % of control agonist response (AVP) (human V2 receptor [4])	IC50 (human V1a receptors [5])	IC50 (human V1a receptors [6])	Compound
57 nM	−1%	5.8 nM	−1%	3800 nM	> 100000 nM	O=C(Nc1ccc(C(=O)N2C[C@@H](CO)NCc3ccccc32)c(Cl)c1)c1ccccc1-c1ccccc1 [Compound 14, (S)—N-(3-chloro-4-(3-(hydroxymethyl)-2,3,4,5-tetrahydro-1H-benzo[e][1,4]diazepine-1-carbonyl)phenyl)biphenyl-2-carboxamide]
2800 nM	−1%	120 nM	−1%			O=C(O)CN1Cc2ccccc2N(C(=O)c2ccc(NC(=O)c3ccccc3-c3ccccc3)cc2Cl)C[C@H]1CO [Compound 17, (S)-2-(1-(4-biphenyl-2-ylcarboxamido-2-chlorobenzoyl)-3-(hydroxymethyl)-2,3-dihydro-1H-benzo[e][1,4]diazepin-4(5H)-yl)acetic acid]
13 nM	−1%	1.9 nM	0%	240 nM	> 100000 nM	O=C1CN2Cc3ccccc3N(C(=O)c3ccc(NC(=O)c4ccccc4-c4ccccc4)cc3Cl)C[C@H]2CO1 [Compound 16, (S)—N-(3-chloro-4-(3-oxo-3,4,6,11,12,12a-hexahydro-1H-benzo[e][1,4]oxazino[4,3-a][1,4]diazepine-11-carbonyl)phenyl)biphenyl-2-carboxamide]
11 nM	−1%	2.5 nM	0%	210 nM	20000 nM	O=C(Nc1ccc(C(=O)N2C[C@H]3COC(O)CN3Cc3ccccc32)c(Cl)c1)c1ccccc1-c1ccccc1 (stereo partly drawn) [Compound 19, (S)—N-(3-chloro-4-(3-hydroxy-3,4,6,11,12,12a-hexahydro-1H-benzo[e][1,4]oxazino[4,3-a][1,4]diazepine-11-carbonyl)phenyl)biphenyl-2-carboxamide]

Compound	IC50 (human V2 receptor [1])	V1a agonist effect, % of control agonist response (AVP) (human V1a receptors [2])	IC50 (human V2 receptor [3])	V2 agonist effect, % of control agonist response (AVP) (human V2 receptor [4])	IC50 (human V1a receptors [5])	IC50 (human V1a receptors [6])
N-[3-chloro-4-({13-oxa-1,9-diazatricyclo[9.4.0.0^{3,8}]pentadeca-1,3,5,7-tetraen-9-yl}carbonyl)phenyl]-2-phenylbenzamide [Compound 21]	410 nM		19 nM	−1.5%	780 nM	> 100000 nM
